Test results: ChEMBL document CHEMBL3603759, “Ribosome-targeting antibiotics as inhibitors of oncogenic microRNAs biogenesis: Old scaffolds for new perspectives in RNA targeting” (Bioorg Med Chem, 2015)
pIC50, pKd: −log10 of the molar value. The source made the active and inactive calls. No cut-off for these calls is given here.

Columns and labels:
[1] = Inhibition of pre-miR-372 (unknown origin) cleavage assessed as reduction of oncogenic microRNAs biogenesis at 200 uM by measuring fluorescence every minute for 5 hrs using 5'-FAM,3'-dabcyl-pre-miRNA beacons by FRET assay in presence of recombinant Dicer
[2] = Inhibition of pre-miR-373 (unknown origin) cleavage assessed as reduction of oncogenic microRNAs biogenesis at 200 uM by measuring fluorescence every minute for 5 hrs using 5'-FAM,3'-dabcyl-pre-miRNA beacons by FRET assay in presence of recombinant Dicer
[3] = Inhibition of pre-miR-17 (unknown origin) cleavage assessed as reduction of oncogenic microRNAs biogenesis at 200 uM by measuring fluorescence every minute for 5 hrs using 5'-FAM,3'-dabcyl-pre-miRNA beacons by FRET assay in presence of recombinant Dicer
[4] = Inhibition of pre-miR-21 (unknown origin) cleavage assessed as reduction of oncogenic microRNAs biogenesis at 200 uM by measuring fluorescence every minute for 5 hrs using 5'-FAM,3'-dabcyl-pre-miRNA beacons by FRET assay in presence of recombinant Dicer
[5] = Inhibition of pre-miR-372 (unknown origin) cleavage assessed as reduction of oncogenic microRNAs biogenesis by measuring fluorescence every minute for 5 hrs using 5'-FAM,3'-dabcyl-pre-miRNA beacons by FRET assay in presence of recombinant Dicer
[6] = Inhibition of pre-miR-373 (unknown origin) cleavage assessed as reduction of oncogenic microRNAs biogenesis by measuring fluorescence every minute for 5 hrs using 5'-FAM,3'-dabcyl-pre-miRNA beacons by FRET assay in presence of recombinant Dicer
[7] = Inhibition of pre-miR-21 (unknown origin) cleavage assessed as reduction of oncogenic microRNAs biogenesis by measuring fluorescence every minute for 5 hrs using 5'-FAM,3'-dabcyl-pre-miRNA beacons by FRET assay in presence of recombinant Dicer
[8] = Binding affinity to 5'-FAM-pre-miR-372 (unknown origin) after 4 hrs by fluorescence assay; settings: for pKd: read-out: Kd
[9] = Binding affinity to 5'-FAM-pre-miR-17 (unknown origin) after 4 hrs by fluorescence assay; settings: for pKd: read-out: Kd
[10] = Binding affinity to 5'-FAM-pre-miR-373 (unknown origin) after 4 hrs by fluorescence assay; settings: for pKd: read-out: Kd
[11] = Binding affinity to 5'-FAM-pre-miR-372 (unknown origin) after 4 hrs by fluorescence assay in presence of 100-fold excess of Escherichia coli tRNA
[12] = Ratio of Kd for 5'-FAM-pre-miR-372 (unknown origin) in presence of 100-fold excess of Escherichia coli tRNA to Kd for 5'-FAM-pre-miR-372 (unknown origin)
[13] = Binding affinity to 5'-FAM-pre-miR-372 (unknown origin) after 4 hrs by fluorescence assay in presence of 100-fold excess of 15-mer DNA
[14] = Ratio of Kd for 5'-FAM-pre-miR-372 (unknown origin) in presence of 100-fold excess of 15-mer DNA to Kd for 5'-FAM-pre-miR-372 (unknown origin)
[15] = Binding affinity to 5'-FAM-pre-miR-372 (unknown origin) assessed as change in total free energy by thermodynamic assay
[16] = Inhibition of pre-miR-17 (unknown origin) cleavage assessed as reduction of oncogenic microRNAs biogenesis by measuring fluorescence every minute for 5 hrs using 5'-FAM,3'-dabcyl-pre-miRNA beacons by FRET assay in presence of recombinant Dicer

Molecule	inhibition [1]	inhibition [2]	inhibition [3]	inhibition [4]	pIC50 [5]	pIC50 [6]	pIC50 [7]	pKd [8]	pKd [9]	pKd [10]	pKd [11]	Ratio [12]	pKd [13]	Ratio [14]	Activity [15]	Kd [8]	Kd [9]	Kd [10]	pIC50 [16]
CN[C@@H]1[C@@H](O[C@H]2O[C@H](CO)[C@@H](N)[C@H](O)[C@H]2O)OC2C[C@@H](N)[C@@H](O[C@H]3[C@H](O)[C@@H](O)[C@H](N)C[C@@H]3N)OC2[C@@H]1O (some centres undefined) [APRAMYCIN]	60%	60%	60%	60%	3.79	3.47	3.77	5.52	5.99	5.38	5.04	3	5.18	2.2	72%	–	–	–	–
CC[C@H]1OC(=O)[C@H](C)[C@@H](O[C@H]2C[C@@](C)(OC)[C@@H](O)[C@H](C)O2)[C@H](C)[C@@H](O[C@@H]2O[C@H](C)C[C@H](N(C)C)[C@H]2O)[C@](C)(O)C[C@@H](C)CN(C)[C@H](C)[C@@H](O)[C@]1(C)O [AZITHROMYCIN]	–	–	–	–	–	–	–	5.79	5.79	5.85	5.72	1.2	5.13	4.5	–	–	–	–	–
NC[C@H]1O[C@H](O[C@H]2[C@H](O)[C@@H](O[C@H]3O[C@H](CO)[C@@H](O)[C@H](N)[C@H]3O)[C@H](N)C[C@@H]2N)[C@H](N)[C@@H](O)[C@@H]1O [BEKANAMYCIN]	inactive	inactive	inactive	inactive	–	–	–	–	–	–	–	–	–	–	–	Not Active	Not Active	Not Active	–
O=C(N[C@H](CO)[C@H](O)c1ccc([N+](=O)[O-])cc1)C(Cl)Cl [CHLORAMPHENICOL]	–	–	–	–	–	–	–	–	–	–	–	–	–	–	–	Not Active	Not Active	Not Active	–
CCC[C@@H]1C[C@@H](C(=O)N[C@@H]([C@H]2O[C@H](SC)[C@H](O)[C@@H](O)[C@H]2O)[C@H](C)Cl)N(C)C1 [CLINDAMYCIN]	–	–	–	–	–	–	–	–	–	–	–	–	–	–	–	Not Active	Not Active	Not Active	–
C[C@H]1c2cccc(O)c2C(=O)C2=C(O)[C@]3(O)C(=O)C(C(N)=O)=C(O)[C@@H](N(C)C)[C@@H]3[C@@H](O)[C@@H]21 [DOXYCYCLINE]	20%	20%	20%	20%	3.25	3.44	3.26	6.04	6.03	5.85	5.70	2	5.79	1.8	78%	–	–	–	3.42
CC[C@H]1OC(=O)[C@H](C)[C@@H](O[C@H]2C[C@@](C)(OC)[C@@H](O)[C@H](C)O2)[C@H](C)[C@@H](O[C@@H]2O[C@H](C)C[C@H](N(C)C)[C@H]2O)[C@](C)(O)C[C@@H](C)C(=O)[C@H](C)[C@@H](O)[C@]1(C)O [ERYTHROMYCIN]	–	–	–	–	–	–	–	5.21	4.56	5.19	5.06	1.4	4.51	5	–	–	–	–	–
CCC[C@@H]1C[C@@H](C(=O)N[C@@H]([C@H]2O[C@H](SC)[C@H](O)[C@@H](O)[C@H]2O)[C@@H](C)O)N(C)C1 [LINCOMYCIN]	–	–	–	–	–	–	–	–	–	–	–	–	–	–	–	Not Active	Not Active	Not Active	–
CC(=O)NC[C@H]1CN(c2ccc(N3CCOCC3)c(F)c2)C(=O)O1 [LINEZOLID]	–	–	–	–	–	–	–	–	–	–	–	–	–	–	–	Not Active	Not Active	Not Active	–
NC[C@H]1O[C@H](O[C@H]2[C@H](O)[C@@H](O)[C@H](N)C[C@@H]2N)[C@H](N)[C@@H](O)[C@@H]1O [NEAMINE]	10%	10%	10%	10%	3.53	3.12	–	3.80	4.60	3.73	3.40	2.5	3.61	1.5	72%	–	–	–	–
CN(C)[C@@H]1C(O)=C(C(N)=O)C(=O)[C@@]2(O)C(O)=C3C(=O)c4c(O)cccc4[C@@](C)(O)[C@H]3[C@H](O)[C@@H]12 [OXYTETRACYCLINE]	10%	10%	10%	10%	3.18	3.31	3.21	5.21	5.21	5.28	5.10	1.3	4.99	1.6	90%	–	–	–	3.41
NC[C@@H]1O[C@H](O[C@H]2[C@@H](O)[C@H](O[C@@H]3[C@@H](O)[C@H](N)C[C@H](N)[C@H]3O[C@H]3O[C@H](CO)[C@@H](O)[C@H](O)[C@H]3N)O[C@@H]2CO)[C@H](N)[C@@H](O)[C@@H]1O [PAROMOMYCIN]	10%	10%	10%	10%	3.11	3.46	3.27	3.86	4.36	4.04	3.88	1	3.78	1.2	61%	–	–	–	–
COc1ccc(C[C@H](N)C(=O)N[C@H]2[C@@H](O)[C@H](n3cnc4c(N(C)C)ncnc43)O[C@@H]2CO)cc1 [PUROMYCIN]	–	–	–	–	–	–	–	4.93	5.23	4.90	–	–	–	–	–	–	–	–	–
CN[C@@H]1[C@H](O)[C@H](NC)[C@H]2O[C@@]3(O)C(=O)C[C@@H](C)O[C@H]3O[C@@H]2[C@H]1O [SPECTINOMYCIN]	inactive	inactive	inactive	inactive	–	–	–	–	–	–	–	–	–	–	–	Not Active	Not Active	Not Active	–
CN[C@@H]1[C@H](O[C@H]2[C@H](O[C@H]3[C@H](O)[C@@H](O)[C@H](N=C(N)N)[C@@H](O)[C@@H]3N=C(N)N)O[C@@H](C)[C@]2(O)C=O)O[C@@H](CO)[C@H](O)[C@H]1O [STREPTOMYCIN]	inactive	inactive	inactive	inactive	3.17	–	3.16	4.57	4.73	4.35	4.21	2	4.32	1.8	47%	–	–	–	–
GENTAMICIN [listing 1 of 2 here]	–	–	–	–	3.18	3.80	3.62	5.44	5.30	5.18	5.38	–	5.09	–	–	–	–	–	3.27
GENTAMICIN [listing 2 of 2 here]	10%	10%	10%	10%	–	–	–	–	–	–	–	1.1	–	4	63%	–	–	–	–
